The source of these data is patent US8372885B2, “Organic compounds and their uses” (Novartis AG, priority 2008, dated 2013).

In this assay the target is T1, P. aeruginosa LpxC (Pseudomonas aeruginosa, UniProt P47205).
T1 construct: made in house
T1 sequence (P47205 1-303): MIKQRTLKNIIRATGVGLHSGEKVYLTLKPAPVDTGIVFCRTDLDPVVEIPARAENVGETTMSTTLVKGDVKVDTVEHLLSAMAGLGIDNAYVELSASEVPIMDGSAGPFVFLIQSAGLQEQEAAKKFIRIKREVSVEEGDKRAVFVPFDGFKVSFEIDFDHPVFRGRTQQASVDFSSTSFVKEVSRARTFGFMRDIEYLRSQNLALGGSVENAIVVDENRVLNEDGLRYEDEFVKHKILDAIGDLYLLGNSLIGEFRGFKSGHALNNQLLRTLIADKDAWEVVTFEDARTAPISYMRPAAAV
Kind of assay: biochemical. Conditions: 1 nM P. aeruginosa LpxC, 30 min pre-incubation, 2 μM UDP-3-O-(R-3-hydroxydecanoyl)-GlcNAc, pH 7.5, room temperature; read-out: IC50 (LpxC inhibitory activity). The text has this: The LC-MS/MS method for quantitation of LpxC product was developed using an Agilent 1200 Capillary HPLC system coupled to an Applied Biosystems MDS Sciex 4000QTRAP mass spectrometer. Both instruments are controlled using the Applied Biosystems MDS Sciex Analyst software. LpxC reaction product (UDP-3-O—(R-3-hydroxyacyl)-glucosamine) was produced by hydrolysis of LpxC substrate catalyzed by P. a. LpxC and purified using reversed phase chromatography on a Phenomenex Luna C18(2) 4.6×50 mm column. An LpxC product calibration curve was generated to evaluate the sensitivity and dynamic range of the LC-MS/MS method. Briefly, compounds are pre-incubated with 1 nM P. aeruginosa LpxC for 30 min. at room temperature. Reactions are initiated by the addition of 2 μM UDP-3-O—(R-3-hydroxydecanoyl)-GlcNAc. Reactions are conducted in a 96-well plate with a total volume of 100 μL in each well containing 50 mM Sodium phosphate pH 7.5, 0.005% Trition X-100 for 20 min at room temperature. After quenching with 1.8% HOAc (10 μL of a 20% HOAc added to each well), reaction mixtures are analyzed using the LC-MS/MS method and peak areas are transformed into product concentration using a LpxC product calibration curve. […] For IC50 determinations, peak areas are converted to percent inhibition in Microsoft Excel. Percent inhibition values are plotted vs. log compound concentration using XLfit. Data is fit to the four-parameter logistic equation using the non-linear regression algorithm in XLfit to return the IC50 and hill slope values.

Each structure is given as a SMILES string.

Consider `CC#CCOc1ccc(C(=O)N[C@@H](CN)C(=O)NO)cc1` [Example 51], for which the 50% inhibitory concentration (IC50) turned out to be 128 nM.

Turning to `CC#CCSc1ccc(C(=O)NC(C(=O)NO)C(C)(C)N)cc1` (stereo not shown) [Example 52], the IC50 is 4.4 nM.

For `CC(C)C#CCOc1ccc(C(=O)N[C@H](C(=O)NO)C(C)(C)N)cc1` [Example 53], the IC50 was 5.5 nM.

Consider `CC#CCOc1ccc(C(=O)NC(C(=O)NO)C(C)(C)N)cc1C` (stereo not shown) [Example 54], for which the IC50 amounted to 16.7 nM.

On to `CC#CCOc1ccc(C(=O)NC(C(=O)NO)C(C)(C)N)cc1Cl` (stereo not shown) [Example 55], for which the IC50 was found to be 9.9 nM.

Regarding `CC#CCOc1c(F)cc(C(=O)NC(C(=O)NO)C(C)(C)N)cc1F` (stereo not shown) [Example 56], the IC50 was 4.1 nM.

As to `C/C=C/COc1ccc(C(=O)N[C@H](C(=O)NO)[C@@H](C)N)cc1` [Example 57], the IC50 came out at 30 nM.

Regarding `C[C@@H](N)[C@H](NC(=O)c1ccc(OCC#CC2CCC2)cc1)C(=O)NO` [Example 58], the IC50 amounted to 6.5 nM.

`CC#CCOc1ccc(C(=O)N[C@H](C(=O)NO)C(C)(C)NC)cc1` [Example 59]: the IC50 was found to be 3.2 nM.

Take `CC(C)=CC#CCOc1ccc(C(=O)N[C@H](C(=O)NO)[C@@H](C)N)cc1` [Example 60]: the IC50 was 8 nM.

For the compound `C[C@@H](N)[C@H](NC(=O)c1ccc(OCC#Cc2ccoc2)cc1)C(=O)NO` [Example 61], the IC50 was 3 nM.

Regarding `CC(C)(N)[C@H](NC(=O)c1ccc(OCC#CC2=CCNCC2)cc1)C(=O)NO` [Example 62], the IC50 was 14 nM.

For the compound `CC(C)(C)C#C/C=C/COc1ccc(C(=O)N[C@H](C(=O)NO)C(C)(C)N)cc1` [Example 63], the IC50 was determined as 0.05 nM.

In the case of `CCCCC#C/C=C/COc1ccc(C(=O)N[C@H](C(=O)NO)C(C)(C)N)cc1` [Example 64], the IC50 turned out to be 0.2 nM.

`Cc1ccc(C#CCOc2ccc(C(=O)N[C@H](C(=O)NO)C(C)(C)N)cc2)cc1` [Example 66]: the IC50 is 1240 nM.

`CC(C)(N)[C@H](NC(=O)c1ccc(OCC#Cc2ccc3c(c2)CCO3)cc1)C(=O)NO` [Example 67]: the IC50 turned out to be 540 nM.

As to `CC(C)(N)[C@H](NC(=O)c1ccc(OCC#Cc2ccc(O)cc2)cc1)C(=O)NO` [Example 68], the IC50 was found to be 1900 nM.

With `COc1ccc(C#CCOc2ccc(C(=O)N[C@H](C(=O)NO)C(C)(C)N)cc2)cc1` [Example 69], the IC50 turned out to be 413 nM.

Take `COc1cccc(C#CCOc2ccc(C(=O)N[C@H](C(=O)NO)C(C)(C)N)cc2)c1` [Example 70]: the IC50 was 2 nM.

On to `COCC#C/C=C/COc1ccc(C(=O)N[C@H](C(=O)NO)C(C)(C)N)cc1` [Example 71], for which the IC50 was 1 nM.

In the case of `CC(C)(N)[C@H](NC(=O)c1ccc(OC/C=C/C#CCO)cc1)C(=O)NO` [Example 72], the IC50 was 1 nM.

For `CC#CCOc1ccc(C(=O)N[C@H](C(=O)NO)C(C)(C)N)c(O)c1` [Example 74], the concentration for half-maximal inhibition (IC50) is 3 nM.

Consider `CC(C)(N)[C@H](NC(=O)c1ccc(OCC#CC2=CCC(N)CC2)cc1)C(=O)NO` (stereo partly shown) [Example 75], for which the IC50 is 6 nM.

Take `CC(C)(N)[C@H](NC(=O)c1ccc(OCC#CC2=CCC(O)CC2)cc1)C(=O)NO` (stereo partly shown) [Example 76]: the IC50 stood at 0.03 nM.

As for `CC(C)(N)[C@H](NC(=O)c1ccc(OCC#Cc2cccc(CO)c2)cc1)C(=O)NO` [Example 77], the IC50 was determined as 0.2 nM.

In the case of `CC(C)(N)[C@H](NC(=O)c1ccc(OCC#Cc2cccnc2)cc1)C(=O)NO` [Example 78], the IC50 came to 10 nM.

`CC(C)(N)[C@H](NC(=O)c1ccc(OCC#Cc2ccccn2)cc1)C(=O)NO` [Example 79]: the concentration for half-maximal inhibition (IC50) amounted to 1 nM.

As for `CC(C)(N)[C@H](NC(=O)c1ccc(OCC#Cc2ccccc2)cc1)C(=O)NO` [Example 80], the IC50 was found to be 1 nM.

Turning to `CC(C)(N)[C@H](NC(=O)c1ccc(OCC#CC2CCC2)cc1)C(=O)NO` [Example 81], the half-inhibitory concentration (IC50) was 0.03 nM.

Turning to `CC(C)(N)[C@H](NC(=O)c1ccc(OCC2CC2)cc1)C(=O)NO` [Example 82], the half-maximal inhibitory concentration (IC50) was determined as 18 nM.

As for `CC(C)(N)[C@H](NC(=O)c1ccc(OCCC2CC2)cc1)C(=O)NO` [Example 83], the IC50 came out at 8 nM.
